pEC50: −log10 of the molar value.
Tests used:
[1] = background statement; cited from earlier work
[2] = background statement; cited from earlier work; remark: listed apart in the source
LNCaP95 = assay: MTT proliferation assay, LNCaP95; format: cell-based; settings: Homo sapiens, LNCaP-95; for pEC50: Table 1, LNCaP95 (AR+ PCa), unit inferred; for inhibition at 10 µM: read-out: MTT % inhib @ 10 μM LNCaP95
Description: Anti-tumor activity was determined by screening a series of compounds against the castrate-resistant, androgen-receptor-positive, prostate cancer cell line LNCaP95. […] Inhibition of proliferation was determined based on the level of LNCaP95 cell growth suppression using an MTT assay (NAD(P)H-dependent cellular oxidoreductase enzymatic activities)) read at 72 and 96 hours after addition of the compounds. […] Each cell line was be tested in quadruplicate.

PK Oral (MMV) = format: in vivo; settings: for Cmax / Tmax: in vivo
in vitro [3] = settings: human, CRL-8155 lymphoblastoid cell line
Description: (§1) HepG2 is hepatoma liver tumor cell line. CRL8155 is lymphoblastoid cell line.

in vitro [4] = settings: human, HepG2 hepatoma cell line
Description: as §1

PC3 = assay: MTT proliferation assay, PC3; settings: Homo sapiens; for inhibition at 10 µM: PC-3, read-out: MTT % inhib @ 10 μM PC3; for pEC50: read-out: EC50 PC3
LNCaP cells = assay: Cell death in LNCaP cells, alone or in combination, 24 h (FIG. 6); format: cell-based
Description: FIG. 6 evaluation of Compound 1 and metformin in LNCaP cells. LNCaP cells were treated with Compound 1, oligomycin (Oli), 2-deoxy-d-glucose (2-DG), or metformin (Met), alone or in combination for 24 h.
FIGS. 2-4 provide additional results on the activity of the compounds of the disclosure. […] Co-administration of Compound 1 and metformin is illustrated in FIG. 6. LNCaP cells were treated with Compound 1, oligomycin (Oli), 2-deoxy-d-glucose (2-DG), or metformin (Met), alone or in combination for 24 h. […] None of compounds were sufficient to kill cells under the same conditions on their own.

[5] = Plasma protein binding, mouse; format: in vitro ADME
prostate cancer tumor = settings: 60 mg/kg, 2× daily; cited from earlier work

Row | SMILES | pEC50 (LNCaP95) | inhibition at 10 µM (LNCaP95) | CC50 (in vitro [3]) | CC50 (in vitro [4]) | inhibition at 10 µM (PC3) | pEC50 (PC3) | fraction unbound [5] | further results
1 | CC(C)(C)n1nc(-c2cccc3ccccc23)c2c(N)ncnc21 [Example 1NA-PP1] |  |  |  |  |  |  |  | solubility [1]: low solubility; metabolism [2]: quickly metabolized
2 | CC(C)(C)n1nc(Cc2cccc3ccccc23)c2c(N)ncnc21 [Example 1NM-PP1] |  |  |  |  |  |  |  | solubility [1]: low solubility; metabolism [2]: quickly metabolized
3 | COCCOc1ncnc2c1c(-c1ccc3cc(OC4CC4)ccc3c1)cn2CC(C)(C)O [Example 2, 1-(5-(6-cyclopropoxynaphthalen-2-yl)-4-(2-methoxyethoxy)-7H-pyrrolo[2,3-d]pyrimidin-7-yl)-2-methylpropan-2-ol] | 5.22 | 32% | > 40 µM | > 40 µM | 12.8% | < 4.70 |  | AUC (PK Oral (MMV); dose 30.8 mg/kg): 822 µmol·min/L; Cmax (PK Oral (MMV); dose 30.8 mg/kg): 34.4 µM; Tmax (PK Oral (MMV); dose 30.8 mg/kg): 1 h
4 | O=CC[C@@H](O)[C@H](O)[C@H](O)CO [Example 2-DG, 2-deoxy-d-glucose, reference compound] |  |  |  |  |  |  |  | cell death in combination with oligomycin or metformin (LNCaP cells): cause cell death
5 | CCOc1ccc2cc(-c3cn(CC(C)(C)O)c4ncnc(OCCOC)c34)ccc2c1 [Example 3, 1-(5-(6-ethoxynaphthalen-2-yl)-4-(2-methoxyethoxy)-7H-pyrrolo[2,3-d]pyrimidin-7-yl)-2-methylpropan-2-ol] | 5.15 | 36.5% |  |  | 2.9% | < 4.70 |  | AUC (PK Oral (MMV); dose 25 mg/kg): 2559 µmol·min/L; Cmax (PK Oral (MMV); dose 25 mg/kg): 5.1 µM; Tmax (PK Oral (MMV); dose 25 mg/kg): 0.667 h
6 | COCCOc1ncnc2c1c(-c1ccc(-c3ccccc3)cc1)cn2CC(C)(C)O [Example 4, 1-(5-(biphenyl-4-yl)-4-(2-methoxyethoxy)-7H-pyrrolo[2,3-d]pyrimidin-7-yl)-2-methylpropan-2-ol] | 5.30 | 36.3% | > 80 µM |  | 13% | < 4.70 |  | 
7 | CCOc1ccc2cc(-c3cn(CC(C)(C)O)c4ncnc(OCC)c34)ccc2c1 [Example 5, 1-(4-ethoxy-5-(6-ethoxynaphthalen-2-yl)-7H-pyrrolo[2,3-d]pyrimidin-7-yl)-2-methylpropan-2-ol] | 5.30 | 50.9% | > 80 µM | > 80 µM | -3.2% | < 4.70 |  | 
8 | CCOc1ncnc2c1c(-c1ccc3cc(OC4CC4)ccc3c1)cn2CC(C)(C)O [Example 6, 1-(5-(6-cyclopropoxynaphthalen-2-yl)-4-ethoxy-7H-pyrrolo[2,3-d]pyrimidin-7-yl)-2-methylpropan-2-ol] | 5.00 | 20.3% | > 40 µM | > 40 µM | 10.1% | < 4.70 |  | AUC (PK Oral (MMV); dose 24.6 mg/kg): 400 µmol·min/L; Cmax (PK Oral (MMV); dose 24.6 mg/kg): 17.6 µM; Tmax (PK Oral (MMV); dose 24.6 mg/kg): 1 h
9 | CCOc1ccc2cc(-c3cn(CC(C)(C)O)c4ncnc(NC)c34)ccc2c1 [Example 11, 1-(5-(6-ethoxynaphthalen-2-yl)-4-(methylamino)-7H-pyrrolo[2,3-d]pyrimidin-7-yl)-2-methylpropan-2-ol] | 5.52 | 55.6% | > 80 µM | > 80 µM | 1.6% | < 4.70 | 0.0019 | 
10 | CNc1ncnc2c1c(-c1ccc(-c3ccccc3)cc1)nn2CC(C)(C)O [Example 12, 1-(3-(biphenyl-4-yl)-4-(methylamino)-1H-pyrazolo[3,4-d]pyrimidin-1-yl)-2-methylpropan-2-ol] | 4.92 | 36.7% | > 80 µM | > 80 µM | 8.4% | < 4.70 |  | 
11 | CNc1ncnc2c1c(-c1ccc(-c3ccccc3)cc1)cn2CC(C)(C)O [Example 13, 1-(5-(biphenyl-4-yl)-4-(methylamino)-7H-pyrrolo[2,3-d]pyrimidin-7-yl)-2-methylpropan-2-ol] | 4.92 | 40.9% | > 80 µM | > 80 µM | -4.3% | < 4.70 |  | 
12 | CCOc1ccc2cc(-c3nn(CC(C)(C)O)c4ncnc(NC)c34)ccc2c1 [Example 14, 1-(3-(6-ethoxynaphthalen-2-yl)-4-(methylamino)-1H-pyrazolo[3,4-d]pyrimidin-1-yl)-2-methylpropan-2-ol] | 4.92 | 42.7% | > 80 µM | > 80 µM | -3.5% | < 4.70 | 0.0079 | 
13 | CNc1ncnc2c1c(-c1ccc3cc(OC4CC4)ccc3c1)cn2CC(C)(C)O [Example 15, 1-(5-(6-cyclopropoxynaphthalen-2-yl)-4-(methylamino)-7H-pyrrolo[2,3-d]pyrimidin-7-yl)-2-methylpropan-2-ol] | 5.10 | 53.2% | > 80 µM | > 80 µM | 2.8% | < 4.70 | 0.0017 | 
14 | CCOc1ccc2cc(-c3cn(CC(C)(C)OC)c4ncnc(NC)c34)ccc2c1 [Example 18, 5-(6-ethoxynaphthalen-2-yl)-7-(2-methoxy-2-methylpropyl)-N-methyl-7H-pyrrolo[2,3-d]pyrimidin-4-amine] | 5.52 | 44.9% | > 80 µM | > 80 µM | 21% | < 4.70 | 0.0077 | 
15 | CNc1ncnc2c1c(-c1cccc(Cl)c1)cn2CC(C)(C)OC [Example 22, 5-(3-chlorophenyl)-7-(2-methoxy-2-methylpropyl)-N-methyl-7H-pyrrolo[2,3-d]pyrimidin-4-amine] | 5.00 | 40.1% | > 80 µM | > 80 µM | 4.3% | < 4.70 |  | 
16 | CC(C)(O)Cn1cc(-c2ccc3cc(OC4CC4)ccc3c2)c2c(NCCOCCOCCOCCN)ncnc21 [Example 28, 1-(4-(2-(2-(2-(2-aminoethoxy)ethoxy)ethoxy)ethylamino)-5-(6-cyclopropoxynaphthalen-2-yl)-7H-pyrrolo[2,3-d]pyrimidin-7-yl)-2-methylpropan-2-ol] | 5.40 | 43% | 15.4 µM | 30.7 µM | -8.3% | < 4.70 |  | 
17 | CCOCCNc1ncnc2c1c(-c1ccc3cc(OCC)ccc3c1)cn2CC(C)(C)O [Example 31, 1-(4-(2-ethoxyethylamino)-5-(6-ethoxynaphthalen-2-yl)-7H-pyrrolo[2,3-d]pyrimidin-7-yl)-2-methylpropan-2-ol] | 5.00 | 34.9% |  |  | 14.9% | < 4.70 |  | AUC (PK Oral (MMV); dose 25 mg/kg): 1724 µmol·min/L; Cmax (PK Oral (MMV); dose 25 mg/kg): 7.8 µM; Tmax (PK Oral (MMV); dose 25 mg/kg): 1 h
18 | CNc1ncnc2c1c(-c1ccc3cc(OC(C)C)ccc3c1)cn2CC(C)(C)OC [Example 32, 5-(6-isopropoxynaphthalen-2-yl)-7-(2-methoxy-2-methylpropyl)-N-methyl-7H-pyrrolo[2,3-d]pyrimidin-4-amine] | 5.52 | 5.1% |  |  | 14.6% | < 4.70 | 0.0069 | 
19 | CNc1ncnc2c1c(-c1ccc(-c3ccc(Br)cc3)cc1)cn2CC(C)(C)OC [Example 33, 5-(4′-bromobiphenyl-4-yl)-7-(2-methoxy-2-methylpropyl)-N-methyl-7H-pyrrolo[2,3-d]pyrimidin-4-amine] | 5.30 | 30.7% |  |  | 11.4% | < 4.70 | 0.0064 | 
20 | Fc1ccc(Cl)cc1-c1nc(Nc2ccncc2)c2nccnc2n1 [SD-208] |  |  |  |  |  |  |  | prostate cancer tumor growth in vivo (prostate cancer tumor): decrease in prostate cancer tumor growth

— patent US12522606B2, “Modified pyrrolo- and pyrazolo-pyrimidines for prostate cancer therapy” (University of Washington, priority 2020, dated 2026)
